{
  "source": "paper PMC2955234",
  "about": "(Investigational New Drugs, 2009)",
  "key": {"[1]": {"format": "in vivo, human"}, "lymphocyte": {"tested_on": "lymphocyte", "assay": "Drug lymphocyte stimulation test in the two patients with erythema multiforme", "format": "cell-based, human", "details": "both patients with erythema multiforme of cohort 1"}, "Dose-limiting toxicity": {"assay": "Dose-limiting toxicity", "format": "in vivo, human", "details": "in combination with carboplatin AUC 5 mg min mL^−1 and paclitaxel 200 mg/m^2, Japanese patients with advanced NSCLC"}, "[2]": {"assay": "Pharmacokinetics of sorafenib in plasma", "format": "in vivo", "details": "human, oral, 400 mg; for Cmax: C max"}, "[3]": {"details": "sorafenib at 400 mg twice daily"}, "[4]": {"details": "Cohort 2, dose-adjusted ratio cycle 2 relative to cycle 1"}},
  "note": "Like-named read-outs stand apart in the source and are kept apart here.",
  "data": [
    {"compound": "CC(=O)O[C@H]1C(=O)[C@@]2(C)[C@H]([C@H](OC(=O)c3ccccc3)[C@]3(O)C[C@H](OC(=O)[C@H](O)[C@@H](NC(=O)c4ccccc4)c4ccccc4)C(C)=C1C3(C)C)[C@]1(OC(C)=O)CO[C@@H]1[C@@H](O)[C@@H]2O", "note": "[6-hydroxy-paclitaxel]", "values": [
      {"measurement": "increases in the AUC and C max values after sorafenib administration", "setting": "[1]; [3]", "value": "not statistically significant"}
    ]},
    {"compound": "CC(=O)O[C@H]1C(=O)[C@@]2(C)[C@H]([C@H](OC(=O)c3ccccc3)[C@]3(O)C[C@H](OC(=O)[C@H](O)[C@@H](NC(=O)c4ccccc4)c4ccccc4)C(C)=C1C3(C)C)[C@]1(OC(C)=O)CO[C@@H]1C[C@@H]2O", "note": "[Paclitaxel]", "values": [
      {"measurement": "AUC Ratio [90% CI]", "setting": "[1]; [4]", "value": "1.05 [0.88–1.25]"},
      {"measurement": "C max Ratio [90% CI]", "setting": "[1]; [4]", "value": "1.19 [0.80–1.77]"},
      {"measurement": "C max Ratio [90% CI]", "setting": "[1]; Cohort 2, dose-adjusted ratio cycle 3 relative to cycle 1", "value": "1.39 [0.88–2.21]"},
      {"measurement": "increases in the AUC and C max values after sorafenib administration", "setting": "[1]; [3]", "value": "not statistically significant"},
      {"measurement": "drug lymphocyte stimulation test result", "setting": "lymphocyte", "value": "negative"}
    ]},
    {"compound": "CNC(=O)c1cc(Oc2ccc(NC(=O)Nc3ccc(Cl)c(C(F)(F)F)c3)cc2)ccn1", "note": "[Sorafenib]", "values": [
      {"measurement": "dose of sorafenib confirmed to be feasible", "setting": "Dose-limiting toxicity", "value": 400, "unit": "mg once daily"},
      {"measurement": "AUC(0-t)", "setting": "[2]; AUC0–12, Cohort 1, cycle 1, day 2, 400 mg sd (n = 6), geometric mean (% CV)", "value": 18200, "unit": "ng·h/mL"},
      {"measurement": "AUC(0-t)", "setting": "[2]; AUC0–12, Cohort 2, cycle 1, day 2, 400 mg sd (n = 7), geometric mean (% CV)", "value": 9000, "unit": "ng·h/mL"},
      {"measurement": "AUC(0-t)", "setting": "[2]; AUC0–12, Cohort 2, cycle 1, day 19, 400 mg od (n = 7), geometric mean (% CV)", "value": 24400, "unit": "ng·h/mL"},
      {"measurement": "AUC(0-t)", "setting": "[2]; AUC0–12, Cohort 2, cycle 2, day 2, 400 mg sd (n = 6), geometric mean (% CV)", "value": 14600, "unit": "ng·h/mL"},
      {"measurement": "Cmax", "setting": "[2]; Cohort 1, cycle 1, day 19, 400 mg bid (n = 3), geometric mean (% CV)", "value": 4600, "unit": "ng/mL"},
      {"measurement": "Cmax", "setting": "[2]; Cohort 2, cycle 1, day 2, 400 mg sd (n = 7), geometric mean (% CV)", "value": 1200, "unit": "ng/mL"},
      {"measurement": "Cmax", "setting": "[2]; Cohort 2, cycle 1, day 19, 400 mg od (n = 7), geometric mean (% CV)", "value": 3200, "unit": "ng/mL"},
      {"measurement": "Cmax", "setting": "[2]; Cohort 2, cycle 2, day 19, 400 mg bid (n = 4), geometric mean (% CV)", "value": 5900, "unit": "ng/mL"},
      {"measurement": "half-life", "setting": "[2]; mean t 1/2, on day 19, across cohorts and cycles", "value": "20.4 to 26.8", "unit": "h"},
      {"measurement": "half-life", "setting": "[2]; t 1/2, Cohort 1, cycle 1, day 19, 400 mg bid (n = 3), geometric mean (% CV)", "value": 20.4, "unit": "h"},
      {"measurement": "half-life", "setting": "[2]; t 1/2, Cohort 2, cycle 1, day 19, 400 mg od (n = 7), geometric mean (% CV)", "value": 26.8, "unit": "h"},
      {"measurement": "half-life", "setting": "[2]; t 1/2, Cohort 2, cycle 2, day 19, 400 mg bid (n = 4), geometric mean (% CV)", "value": 23.9, "unit": "h"},
      {"measurement": "drug lymphocyte stimulation test result", "setting": "lymphocyte", "value": "positive"}
    ]},
    {"compound": "N.N.O=C([O-])C1(C(=O)[O-])CCC1.[Pt+2]", "note": "[carboplatin]", "values": [
      {"measurement": "effect of sorafenib on the pharmacokinetics", "setting": "[1]; [3]", "value": "no effect"},
      {"measurement": "drug lymphocyte stimulation test result", "setting": "lymphocyte", "value": "negative"}
    ]}
  ]
}
